Each compound was assayed against human CRTH2 receptor (Homo sapiens (Human), UniProt Q9Y5Y4) (assay: CRTH2 receptor radioligand binding assay (SPA, [3H]-PGD2 displacement)). Conditions: [3H]-PGD2 1 nM, CHO-K1-hCRTH2 cell membranes, SPA format, 3 h room temperature.
Experimental: The binding of CRTH2 antagonists is determined using membranes prepared from Chinese hamster ovary cells (CHO-K1 cells) transfected with the human CRTH2 receptor (CHO-K1-hCRTH2 cells, Perkin Elmer, Cat No ES-561-C). To produce cell membranes the CHO-K1-hCRTH2 cells are cultured in suspension in CHO SFMII medium supplemented with 400 μg/ml G418. The cells are harvested by centrifugation at 300 g for 10 min at room temperature. The cell pellet is resuspended in Phosphate Buffer Saline (PBS) including a protease inhibitor mix (Complete, Roche) and adjusted to a concentration of 10E7 cells/ml. The CHO-K1-hCRTH2 cells are disrupted by nitrogen […] to obtain the membrane preparation. Cell debris is removed by centrifugation (500 g at 4° C., 30 min) and the supernatant is transferred into fresh tubes followed by a second centrifugation at 40000 g for 1 h at 4° C. to sediment the membranes. The membranes are suspended in SPA incubation buffer (50 mM Tris HCl, 10 mM MgCl2, 150 mM NaCl, 1 mM EDTA, pH 7.4) without bovine serum albumin, homogenized by passing through a single use needle (Terumo, 23G×1″), and stored in aliquots at −80° C.
The CRTH2 receptor binding assay is performed in a scintillation proximity assay (SPA) format with the radioligand [^3H]-PGD2 (Perkin Elmer, NET616000MC). CHO-K1-hCRTH2 cell membranes are again homogenized by passing through a single use needle (Terumo, 23G×1″) and diluted in SPA incubation buffer in suitable concentrations (0.5-10 μg protein/well). The SPA assay is set up in 96 well microtiter plates (Perkin Elmer, CatNo. 6005040) in SPA incubation buffer with a final volume of 200 μl per well and final concentration of 50 mM Tris-HCl, 10 mM MgCl2, 150 mM NaCl, 1 mM EDTA pH 7.4, 0.1% bovine serum albumin). The SPA assay mixture contains 60 μl of the membrane suspension, 80 μl of Wheat Germ Agglutinin coated PVT beads (GE Healthcare, RPNQ-0001, 0.3 mg/well), 40 μl of [3H]-PGD2 diluted in SPA buffer to a final concentration of 1 nM (50 000 dpm) and 20 μl of the test compound (dissolved in dimethylsulfoxid). The SPA assay mixture is incubated for 3 h at room temperature. Bound radioactivity is determined with a scintillation counter (Micro Beta Trilux, Wallac).
The binding of [^3H]-PGD2 to CHO-K1-hCRTH2 cell membranes is determined in the absence (total binding, Bo) and presence (non-specific binding, NSB) of unlabelled PGD2 (1 μM, Cayman Chemical, Cat No 12010) or a reference CRTH2 antagonist (10 μM CAY10471, Cayman Chemical, Cat No 10006735).
Determination of the affinity of a test compound is calculated by subtraction of the non-specific binding (NSB) from the total binding (Bo) or the binding in the presence of the test compound (B) at a given compound concentration. […] The Bo-NSB value is set to 0% inhibition.

Sequence of human CRTH2 receptor (Q9Y5Y4 whole entry): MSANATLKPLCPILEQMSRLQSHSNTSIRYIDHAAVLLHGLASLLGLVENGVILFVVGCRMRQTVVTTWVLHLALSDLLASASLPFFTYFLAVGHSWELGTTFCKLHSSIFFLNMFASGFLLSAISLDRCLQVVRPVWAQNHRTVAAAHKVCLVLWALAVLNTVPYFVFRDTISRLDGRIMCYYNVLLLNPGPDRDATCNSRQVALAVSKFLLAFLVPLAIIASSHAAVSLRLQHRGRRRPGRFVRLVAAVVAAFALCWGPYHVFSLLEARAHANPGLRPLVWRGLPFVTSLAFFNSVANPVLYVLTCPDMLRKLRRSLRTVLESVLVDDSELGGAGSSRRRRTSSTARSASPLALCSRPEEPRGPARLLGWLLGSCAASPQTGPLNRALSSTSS

Row | Ki [nM] | SMILES
1 | 0.7 | CCCc1nn(Cc2ccc(NC(=O)c3ccc(C(F)(F)F)cc3C)cc2)c(C(C)C)c1CC(=O)O [Example 2.36]
2 | 0.4 | CCCc1nn(Cc2ccc(NC(=O)c3ccc(Cl)cc3)cc2)c(C(C)C)c1CC(=O)O [Example 2.37]
3 | 1 | CCCc1nn(Cc2ccc(NC(=O)c3ccc(Cl)cc3C)cc2)c(C(C)C)c1CC(=O)O [Example 2.38]
4 | 1.6 | CCCc1nn(Cc2ccc(NC(=O)c3ccccc3)cc2)c(C(C)C)c1CC(=O)O [Example 2.39]
5 | 0.2 | CCCc1nn(Cc2ccc(NC(=O)c3ccc(Cl)c(Cl)c3)cc2)c(C(C)C)c1CC(=O)O [Example 2.40]
6 | 0.2 | CCCc1nn(Cc2ccc(NC(=O)c3ccc(C(F)(F)F)cc3)cc2)c(C(C)C)c1CC(=O)O [Example 2.41]
7 | 0.1 | CCCc1nn(Cc2ccc(NC(=O)c3ccc4ccccc4c3)cc2)c(C(C)C)c1CC(=O)O [Example 2.42]
8 | 56.3 | Cc1nn(Cc2ccc(/C=C/c3ccc(C(F)(F)F)cc3)cc2)c(C)c1CC(=O)O [Example 12.2, (3,5-Dimethyl-1-{4-[(E)-2-(4-trifluoromethyl-phenyl)-vinyl]-benzyl}-1H-pyrazol-4-yl)-acetic acid]
9 | 4.8 | CCc1nn(Cc2ccc(OCc3ccc(Cl)c(C(F)(F)F)c3)cc2)c(CC)c1CC(=O)O [Example 13.7]

From US8791272B2, “Pyrazole compounds as CRTH2 antagonists” (Boehringer Ingelheim International GmbH, priority 2011, dated 2014)
